Assay results as given in PubChem BioAssay AID330 (DTP/NCI, 2004).
“And” between values parts separate entries of the source, which are not always exact repeats. Equal values may be shown once. Toxic doses and inconclusive results are not listed. How the source made its calls: active means survival T/C of 150% or more; inactive means T/C below 125% in these data.

Tested on: P388 leukemia ip, CD2F1 mice, survival T/C
Assay: NCI In Vivo Anticancer Drug Screen. Data for tumor model P388 Leukemia (intraperitoneal) in CD2F1 (CDF1) mice
Conditions: endpoint: median survival time, higher = longer survival
Procedure, shortened: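 Mice carrying the transplanted tumor received test compound or vehicle. Survival was recorded in each group, and the value is the treated-group measurement divided by that of the vehicle-treated control group.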

[1] = dose: 50.0 mg/kg/injection, schedule: Q01DX005 (ip), vehicle: saline with Tween-80
[2] = dose: 100.0 mg/kg/injection, schedule: Q01DX005 (ip), vehicle: saline with Tween-80
[3] = dose: 200.0 mg/kg/injection, schedule: Q01DX005 (ip), vehicle: saline with Tween-80
[4] = dose: 50.0 mg/kg/injection, schedule: Q01DX009 (ip), vehicle: Klucel (hydroxypropylcellulose) (HPC)
[5] = dose: 100.0 mg/kg/injection, schedule: Q01DX009 (ip), vehicle: Klucel (hydroxypropylcellulose) (HPC)
[6] = dose: 200.0 mg/kg/injection, schedule: Q01DX009 (ip), vehicle: Klucel (hydroxypropylcellulose) (HPC)
[7] = dose: 50.0 mg/kg/injection, schedule: Q01DX009 (ip), vehicle: saline
[8] = dose: 100.0 mg/kg/injection, schedule: Q01DX009 (ip), vehicle: saline
[9] = dose: 200.0 mg/kg/injection, schedule: Q01DX009 (ip), vehicle: saline
[10] = dose: 200.0 mg/kg/injection, schedule: Q01DX009 (ip), vehicle: saline with Tween-80
[11] = dose: 60.0 mg/kg/injection, schedule: Q01DX005 (ip), vehicle: Klucel (hydroxypropylcellulose) (HPC)
[12] = dose: 120.0 mg/kg/injection, schedule: Q01DX005 (ip), vehicle: Klucel (hydroxypropylcellulose) (HPC)
[13] = dose: 240.0 mg/kg/injection, schedule: Q01DX005 (ip), vehicle: Klucel (hydroxypropylcellulose) (HPC)
[14] = dose: 50.0 mg/kg/injection, schedule: Q04DX003 (ip), vehicle: saline with Tween-80
[15] = dose: 100.0 mg/kg/injection, schedule: Q04DX003 (ip), vehicle: saline with Tween-80

Measured: T/C

Nc1ccn(C2CC(O)C(CO)O2)c(=O)n1 (stereo not drawn)
inactive: dose: 4.6 mg/kg/injection, schedule: Q01DX009 (ip), vehicle: water 95 % of control | dose: 9.38 mg/kg/injection, schedule: Q01DX009 (ip), vehicle: water 100 % of control | dose: 18.75 mg/kg/injection, schedule: Q01DX009 (ip), vehicle: water 105 % of control and 87 % of control | dose: 37.5 mg/kg/injection, schedule: Q01DX009 (ip), vehicle: water 112 % of control | dose: 75.0 mg/kg/injection, schedule: Q01DX009 (ip), vehicle: water 96 % of control | dose: 150.0 mg/kg/injection, schedule: Q01DX009 (ip), vehicle: water 103 % of control

Cc1cc2nc3c(nc2cc1C)CCCCCC3
inactive: dose: 85.5 mg/kg/injection, schedule: Q01DX001 (ip), vehicle: Klucel (hydroxypropylcellulose) (HPC) 92 % of control | dose: 171.0 mg/kg/injection, schedule: Q01DX001 (ip), vehicle: Klucel (hydroxypropylcellulose) (HPC) 90 % of control | dose: 342.0 mg/kg/injection, schedule: Q01DX001 (ip), vehicle: Klucel (hydroxypropylcellulose) (HPC) 90 % of control

O=[N+]([O-])CC(c1ccccc1)C(c1ccccc1)[N+](=O)[O-] (stereo not drawn)
inactive: [1] 90 % of control | [2] 93 % of control | [3] 112 % of control

CC1=NNC(=O)/C1=C/c1ccccc1Cl
inactive: [4] 104 % of control | [5] 105 % of control | [6] 112 % of control | dose: 400.0 mg/kg/injection, schedule: Q01DX009 (ip), vehicle: Klucel (hydroxypropylcellulose) (HPC) 113 % of control

Cn1c2cc(=O)ccc2c2c3nc4ccccc4[nH]c3cc(O)c21
inactive: [7] 98 % of control and 100 % of control | [8] 95 % of control and 91 % of control | [9] 100 % of control and 104 % of control

O=[N+]([O-])c1cccnc1Sc1ccnc(Sc2ncccc2[N+](=O)[O-])n1
inactive: dose: 50.0 mg/kg/injection, schedule: Q01DX009 (ip), vehicle: saline with Tween-80 89 % of control | [7] 97 % of control | [8] 100 % of control and 96 % of control | [10] 89 % of control | [9] 89 % of control and 91 % of control

CSCC(C)C(N)C(=O)O (stereo not drawn)
inactive: [4] 109 % of control | [5] 105 % of control | [6] 100 % of control

CCC[CH2][Sn]([CH2]CCC)([CH2]CCC)[S]C12CC3CC(CC(C3)C1)C2
inactive: dose: 100.0 mg/kg/injection, schedule: Q04DX003 (ip), vehicle: saline 112 % of control | dose: 200.0 mg/kg/injection, schedule: Q04DX003 (ip), vehicle: saline 102 % of control | dose: 400.0 mg/kg/injection, schedule: Q04DX003 (ip), vehicle: saline 106 % of control

C#CCOc1ccc(Cl)cc1[N+](=O)[O-]
inactive: [4] 100 % of control | [5] 99 % of control | [6] 104 % of control

O=C(NN(C(=O)c1ccccc1)c1ccccc1)c1ccccc1
inactive: [1] 95 % of control | [2] 92 % of control

C=C1C(=O)O[C@@H]2[C@H]3C(C)=CC[C@H]3C(C)=CC[C@@H]12
inactive: dose: 100.0 mg/kg/injection, schedule: Q01DX001 (ip), vehicle: saline 106 % of control | dose: 200.0 mg/kg/injection, schedule: Q01DX001 (ip), vehicle: saline 103 % of control | dose: 400.0 mg/kg/injection, schedule: Q01DX001 (ip), vehicle: saline 107 % of control

Nc1ccccc1SCc1csc(-c2ccc(Cl)cc2)n1
inactive: [7] 103 % of control | [8] 114 % of control | [9] 109 % of control

c1ccc2c(c1)Cc1c-2n[nH]c1-c1[nH]nc2c1Cc1ccccc1-2
inactive: [11] 96 % of control | [12] 102 % of control | [13] 96 % of control

CC(=O)Cc1nc2ccccc2[nH]c1=O
inactive: dose: 15.0 mg/kg/injection, schedule: Q01DX005 (ip), vehicle: Klucel (hydroxypropylcellulose) (HPC) 92 % of control | dose: 30.0 mg/kg/injection, schedule: Q01DX005 (ip), vehicle: Klucel (hydroxypropylcellulose) (HPC) 90 % of control and 96 % of control | [11] 90 % of control and 98 % of control | [12] 91 % of control | [13] 100 % of control

ClC=P(c1ccccc1)(c1ccccc1)c1ccccc1
inactive: [14] 104 % of control | [15] 109 % of control | dose: 200.0 mg/kg/injection, schedule: Q04DX003 (ip), vehicle: saline with Tween-80 104 % of control

CS(=O)(=O)c1ccc(/C(=N/N)c2ccccc2)cc1
inactive: dose: 12.5 mg/kg/injection, schedule: Q01DX009 (ip), vehicle: Klucel (hydroxypropylcellulose) (HPC) 103 % of control | dose: 25.0 mg/kg/injection, schedule: Q01DX009 (ip), vehicle: Klucel (hydroxypropylcellulose) (HPC) 102 % of control | [4] 101 % of control and 93 % of control

COC(=O)C(CCSC)NC(=O)C(Cc1c[nH]c2ccccc12)NC(=O)OC(C)(C)C (stereo not drawn)
inactive: [4] 86 % of control | [5] 97 % of control | [6] 106 % of control

CCN(CC)CCOC(=O)C(C1CCCCC1)C1(O)CCCCCC1 (stereo not drawn)
inactive: [1] 104 % of control | [2] 102 % of control | [3] 95 % of control

O=C1c2ccccc2C(=O)N1C(=NC1CCCCC1)c1ccccc1
inactive: dose: 100.0 mg/kg/injection, schedule: Q04DX003 (ip), vehicle: Klucel (hydroxypropylcellulose) (HPC) 104 % of control | dose: 200.0 mg/kg/injection, schedule: Q04DX003 (ip), vehicle: Klucel (hydroxypropylcellulose) (HPC) 101 % of control | dose: 400.0 mg/kg/injection, schedule: Q04DX003 (ip), vehicle: Klucel (hydroxypropylcellulose) (HPC) 109 % of control

CCCCCc1ccccc1
inactive: dose: 100.0 mg/kg/injection, schedule: Q01DX009 (ip), vehicle: saline with Tween-80 106 % of control | [10] 109 % of control

CCCCCCCCCCN=Cc1c(O)c(O)c(CCC)c2cc(C)c(-c3c(C)cc4c(CCC)c(O)c(O)c(C=NCCCCCCCCCC)c4c3O)c(O)c12
inactive: dose: 25.0 mg/kg/injection, schedule: Q01DX005 (ip), vehicle: Klucel (hydroxypropylcellulose) (HPC) 100 % of control | dose: 50.0 mg/kg/injection, schedule: Q01DX005 (ip), vehicle: Klucel (hydroxypropylcellulose) (HPC) 95 % of control | dose: 100.0 mg/kg/injection, schedule: Q01DX005 (ip), vehicle: Klucel (hydroxypropylcellulose) (HPC) 98 % of control | dose: 200.0 mg/kg/injection, schedule: Q01DX005 (ip), vehicle: Klucel (hydroxypropylcellulose) (HPC) 95 % of control

Nc1nc(=S)c2ncn(C3OC(COC(=O)c4ccc(Cl)cc4)C(OC(=O)c4ccc(Cl)cc4)C3OC(=O)c3ccc(Cl)cc3)c2[nH]1 (stereo not drawn)
inactive: dose: 25.0 mg/kg/injection, schedule: Q01DX009 (ip), vehicle: saline with Tween-80 122 % of control | dose: 25.0 mg/kg/injection, schedule: Q04DX003 (ip), vehicle: saline with Tween-80 95 % of control | [14] 100 % of control | [15] 104 % of control | dose: 132.0 mg/kg/injection, schedule: Q04DX003 (ip), vehicle: saline with Tween-80 116 % of control | dose: 400.0 mg/kg/injection, schedule: Q04DX003 (ip), vehicle: saline with Tween-80 104 % of control

CCN(CC)C(=O)N1C=CC(C)C=C1
inactive: dose: 60.0 mg/kg/injection, schedule: Q01DX005 (ip), vehicle: saline with Tween-80 100 % of control | dose: 120.0 mg/kg/injection, schedule: Q01DX005 (ip), vehicle: saline with Tween-80 101 % of control
